Measurements reported in patent publication US10550091B2, “1,4,5-substituted 1,2,3-triazole analogues as antagonists of the pregnane X receptor” (ST. JUDE CHILDREN'S RESEARCH HOSPITAL, priority 2016, dated 2020).
Like-named read-outs stand apart in the source and are kept apart here.

Tests used:
[1] = system: primary human hepatocytes (PHHs); experiment: midazolam metabolism in primary human hepatocytes after hPXR agonist pretreatment; assay type: cell-based; conditions: PHHs pretreated 72 hr with DMSO, 1.6 μM RIF, 0.5 or 5 μM PTX, with 10 μM test compound; then 3.3 μM MDZ 4 h
Method: Midazolam and 1-OH midazolam were from BD Gentest. Midazolam-D4 maleate (internal standard, IS) was from Cerilliant; Paclitaxel and 3′-p-Hydroxypaclitaxel were from Sigma; and 6α-hydroxy Paclitaxel was from Cayman Chemical. 100 μl of reaction medium at each different time point was collected and 200 μl of acetonitrile containing IS was added. This solution was then vigorously mixed for 10 min and centrifuged at 10,000 rpm for 10 min. Calibration and quality control samples were prepared. 5 μl of the samples was injected onto a Waters Acquity UPLC BEH C18 column (2.1×50 mm, 1.7 μm), using a Waters Acquity UPLC system. Chromatographic separation was performed by gradient elution at a constant flow rate of 1 mL/min for 15 min. The gradient consisted of 0.1% formic acid water (mobile phase A) and methanol (mobile phase B). […] Nitrogen was applied as curtain, collision and drying gas at 60 psi. Declustering potentials, entrance potential and collision energy was as follows: 120 V, 12 V and 35 V for MDZ; 70 V, 12 V and 30 V for 1-OH MDZ; and 120 V, 12 V and 37 V for IS.

[2] = system: primary human hepatocytes (PHHs); experiment: paclitaxel metabolism in primary human hepatocytes; assay type: cell-based; conditions: 1 μM PTX with 10 μM test compound, 24 and 48 hr
Method: FIGS. 1A-1D show representative data for a representative disclosed compound showing that the tested compound modulates the activity of an hPXR agonist in primary human hepatocytes (“PHHs”). […] PHHs were pretreated with DMSO (0.1%), 1.6 μM of rifampicin (RIF), 0.5 μM of paclitaxel (PTX) or 5 μM of PTX, respectively, in the absence and presence of 10 μM of the test compound. After 72 hr, PHHs then received 3.3 μM of midazolam (MDZ) treatment for 4 h. The concentrations of 1′-OH MDZ (MDZ metabolite) in the media of each pretreatment condition were determined using LC/MS/MS as described in the Examples. […] PHHs were also treated with 1 μM of PTX in the absence and presence of 10 μM of the test compound, and then the concentrations of major PTX metabolites, 3-OH PTX (by CYP3A4) and 6α-OH PTX (by CYP2C8), were determined using LC/MS/MS at 24 hr and 48 hr of treatment, respectively. The concentrations of 3-OH PTX and 6α-OH PTX are shown in FIGS. 1B and 1C, respectively.
Midazolam and 1-OH midazolam were from BD Gentest. Midazolam-D4 maleate (internal standard, IS) was from Cerilliant; Paclitaxel and 3′-p-Hydroxypaclitaxel were from Sigma; and 6α-hydroxy Paclitaxel was from Cayman Chemical. 100 μl of reaction medium at each different time point was collected and 200 μl of acetonitrile containing IS was added. […] Calibration and quality control samples were prepared. […]

[3] = system: LS 180 cells stably overexpressed hPXR; experiment: sensitization of colon cancer cells to anti-cancer drugs (viability); assay type: cell-based, human; conditions: absence vs presence of 10 μM test compound, 96 h
Method: FIGS. 2A-2D show representative data for a representative disclosed compound showing that the tested compound sensitizes colon cancer cells to representative anti-cancer drugs. […] LS 180 cells stably overexpressed hPXR were treated with serial dilutions of paclitaxel (PTX; see FIG. 2A), docetaxel (TXT; see FIG. 2B), vinblastine (VBL; see FIG. 2C), or vincristine (VCR; see FIG. 2D) in the absence and presence of 10 μM of the test compound as indicated for 96 h. Values of the viability of compound-treated cells were expressed as a percentage of that of DMSO-treated cells, and drug concentration is expressed in a log scale. Data at each point represents mean±SEM from quadruplicate measurements.

hPXR [4] = experiment: liver CYP3A expression in hPXR-tg mice; assay type: in vivo, mouse; conditions: RIF 10 mg/kg plus test compound 200 mg/kg, 72 h
Method: Briefly, mouse liver Cyp3a11 mRNA was analyzed by real-time PCR in hPXR-tg mice treated with vehicle control (Vehicle), RIF (10 mg/kg) or RIF (10 mg/kg) plus test compound (200 mg/kg) for 72 h. Each data point represents the level of Cyp3a11 mRNA (FIG. 3A) or protein (FIG. 3B) in an individual mouse; lines indicate the mean value for 3-7 mice per group.
hPXR-tg mice were generated previously (Xie et al., 2000). Five mice in each group were dosed orally with vehicle control or 10 mg/kg RIF, every 24 h for three days. Eight hours after the last dose, the animals were euthanized by C02 and liver tissues were harvested. A piece of each liver was preserved in RNAlater solution (Invitrogen) at 4° C. for mRNA isolation. The remaining tissue was instantly frozen in liquid nitrogen and stored at −80° C. for total protein extraction. […]

CYP3A4 promoter reporter = CYP3A4 promoter reporter activity in hPXR-CYP3A4-luc reporter mice (bioluminescence imaging); assay type: in vivo, mouse; conditions: RIF 10 mg/kg plus test compound 150 mg/kg every 24 h for 2 days; imaging 10 h after last treatment
Method: Individual mouse received 3 rounds of sequential treatment of vehicle control (Vehicle), RIF (10 mg/kg) and RIF (10 mg/kg) plus the test compound (150 mg/kg) every 24 h for 2 days, respectively, with a washout period of 72-hour between two rounds of treatment. The luciferase activity in these reporter mice was recorded by bioluminescence imaging 10 h after the last treatment of each round, and the induction of CYP3A4 promoter reporter activity was calculated as described in Examples. Each data point represents the induction of CYP3A4 promoter reporter activity by the treatment in an individual mouse, and dos lines indicate the CYP3A4 promoter reporter activity change in individual mouse after following round of treatment. p values are indicated between the two treatment compared by paired t test.
10 hours after the last treatment of each round, the mice were imaged as described above. Uniform regions of interest were drawn around the liver, and total photon flux was analyzed with Living Image 3.2 software (Xenogen). The induction of CYP3A4-luc reporter activity was calculated using the imaging from the same mouse as follows: induction rate=total photon flux (after treatment)/total photon flux (before treatment).

hPXR-tg mice = experiment: loss of righting reflex (LORR) assay in hPXR transgenic mice; assay type: in vivo, mouse; conditions: RIF 10 mg/kg plus test compound 200 mg/kg every 24 h for three days
Method: Loss of righting reflex (LORR) duration was recorded as described in Examples to measure metabolism of the anesthetic ([…]) in hPXR-tg, mice before and after treatment with vehicle, RIF, and RIF plus the test compound as indicated. Each data point represents LORR duration in an individual mouse; lines indicate LORR duration change in individual mouse before and after treatment. P values indicate comparison of values by paired t test.
Mice were intraperitoneally injected with 250 mg/kg of 2,2,2-tribromoethanol, which is metabolically cleared only via mouse CYP3A11. After the mice lost their righting reflex, they were placed on their backs under a heat lamp. The duration of LORR was measured as the time from the start of LORR to recovery (i.e., when mice could right themselves after being placed on their backs twice within 1 min). A baseline LORR duration was established for each mouse at the administered dose of 2,2,2-tribromoethanol. […] The paired Student's t-test was used to compare LORR duration between baseline and after treatment. A P value <0.05 was considered to indicate a significant difference between compared groups.

[5] = target: human peroxisome proliferator-activated receptor gamma (PPARγ) (Homo sapiens, UniProt P37231); experiment: human peroxisome proliferator-activated receptor gamma (PPARγ) transactivation assay; assay type: cell-based; conditions: Anta = compound exhibited antagonism; read-out: PPARγ (Anta)
Sequence of human peroxisome proliferator-activated receptor gamma (PPARγ) (P37231 whole entry, looked up): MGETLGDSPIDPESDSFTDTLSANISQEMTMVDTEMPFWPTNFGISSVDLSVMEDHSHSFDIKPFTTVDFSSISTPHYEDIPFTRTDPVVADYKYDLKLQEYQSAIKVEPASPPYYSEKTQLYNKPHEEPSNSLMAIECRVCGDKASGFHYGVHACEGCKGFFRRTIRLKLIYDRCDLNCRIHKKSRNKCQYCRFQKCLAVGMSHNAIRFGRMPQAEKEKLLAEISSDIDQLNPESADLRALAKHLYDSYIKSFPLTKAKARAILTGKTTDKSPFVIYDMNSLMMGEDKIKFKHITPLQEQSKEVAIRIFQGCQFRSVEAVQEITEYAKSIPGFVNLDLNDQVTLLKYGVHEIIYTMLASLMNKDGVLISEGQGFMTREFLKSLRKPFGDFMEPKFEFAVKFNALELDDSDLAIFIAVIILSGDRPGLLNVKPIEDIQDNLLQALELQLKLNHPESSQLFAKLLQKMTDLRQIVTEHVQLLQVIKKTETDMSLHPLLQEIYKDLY
Method: Cells were maintained by following manufacturer's instruction. Briefly, PPARγ cells were maintained in matrigel-coated tissue culture flasks in DMEM supplemented with 10% dialyzed FBS, 0.1 mM non-essential amino acids, 1 mM sodium pyruvate, 25 mM HEPES, 100 μg/ml of hygromycin B, 500 μg/ml of geneticin, 100 units/ml penicillin and 100 μg/ml streptomycin. […] Assay medium containing DMSO without cells serves as background control.

HepG2 cells = experiment: HepG2 cytotoxicity assay (CellTiter Glo); assay type: cell-based; conditions: Homo sapiens, HepG2, 72 h, read-out: IC50 (cyto)
Text: The luminescence signal was detected using an Envision plate reader (PerkinElmer Life Sciences).

[6] = target: human vitamin D receptor (hVDR) (Homo sapiens, UniProt P11473); experiment: human vitamin D receptor (hVDR) transactivation assay; assay type: cell-based
Sequence of human vitamin D receptor (hVDR) (P11473 whole entry, looked up): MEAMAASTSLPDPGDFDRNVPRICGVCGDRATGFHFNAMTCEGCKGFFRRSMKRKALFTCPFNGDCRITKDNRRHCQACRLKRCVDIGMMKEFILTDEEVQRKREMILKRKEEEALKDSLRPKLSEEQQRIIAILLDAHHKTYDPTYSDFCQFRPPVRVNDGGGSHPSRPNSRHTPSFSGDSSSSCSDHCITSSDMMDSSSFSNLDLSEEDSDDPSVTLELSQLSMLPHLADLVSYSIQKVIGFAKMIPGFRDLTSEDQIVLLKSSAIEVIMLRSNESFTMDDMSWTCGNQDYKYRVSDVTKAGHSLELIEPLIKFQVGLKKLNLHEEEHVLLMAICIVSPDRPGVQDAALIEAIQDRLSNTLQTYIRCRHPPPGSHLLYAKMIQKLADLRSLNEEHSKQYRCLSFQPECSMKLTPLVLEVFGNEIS
Method: Cells were maintained by following manufacturer's instruction. Briefly, VDR cells were maintained in matrigel-coated tissue culture flasks in DMEM supplemented with 10% dialyzed FBS, 0.1 mM non-essential amino acids, 1 mM sodium pyruvate, 25 mM HEPES, 80 μg/ml of hygromycin B, 80 μg/ml of zeocin, 100 units/ml penicillin and 100 μg/ml streptomycin. […] Assay medium containing DMSO without cells serves as background control.

[7] = target: human glucocorticoid receptor (hGR) (Homo sapiens, UniProt P04150); experiment: human glucocorticoid receptor (hGR) transactivation assay; assay type: cell-based; conditions: Anta = compound exhibited antagonism; read-out: GR (Anta)
Sequence of human glucocorticoid receptor (hGR) (P04150 whole entry, looked up): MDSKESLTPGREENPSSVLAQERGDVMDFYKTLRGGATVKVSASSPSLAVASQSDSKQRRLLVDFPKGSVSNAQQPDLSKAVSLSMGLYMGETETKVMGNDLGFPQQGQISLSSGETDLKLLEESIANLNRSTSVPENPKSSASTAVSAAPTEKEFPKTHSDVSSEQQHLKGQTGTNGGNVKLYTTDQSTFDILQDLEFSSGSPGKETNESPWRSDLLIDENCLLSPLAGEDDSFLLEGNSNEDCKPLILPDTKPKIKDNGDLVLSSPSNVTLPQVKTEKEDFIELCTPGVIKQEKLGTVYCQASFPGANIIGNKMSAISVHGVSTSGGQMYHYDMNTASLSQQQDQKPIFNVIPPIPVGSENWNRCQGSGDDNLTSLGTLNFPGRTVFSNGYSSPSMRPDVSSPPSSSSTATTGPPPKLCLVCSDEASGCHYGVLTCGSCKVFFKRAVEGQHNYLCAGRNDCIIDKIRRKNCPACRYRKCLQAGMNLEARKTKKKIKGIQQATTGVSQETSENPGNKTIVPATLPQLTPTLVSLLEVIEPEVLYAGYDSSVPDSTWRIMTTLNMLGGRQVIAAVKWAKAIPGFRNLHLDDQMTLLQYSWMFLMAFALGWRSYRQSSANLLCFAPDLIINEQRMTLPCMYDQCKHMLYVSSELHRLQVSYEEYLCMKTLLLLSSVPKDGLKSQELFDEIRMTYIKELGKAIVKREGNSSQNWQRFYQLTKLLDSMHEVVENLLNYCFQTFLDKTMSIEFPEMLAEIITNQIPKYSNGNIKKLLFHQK

[8] = target: human retinoid X receptor alpha (hRXRα) (Homo sapiens, UniProt P19793); experiment: human retinoid X receptor alpha (hRXRα) transactivation assay; assay type: cell-based; conditions: Anta = compound exhibited antagonism; read-out: RXRα (Anta)
Sequence of human retinoid X receptor alpha (hRXRα) (P19793 whole entry, looked up): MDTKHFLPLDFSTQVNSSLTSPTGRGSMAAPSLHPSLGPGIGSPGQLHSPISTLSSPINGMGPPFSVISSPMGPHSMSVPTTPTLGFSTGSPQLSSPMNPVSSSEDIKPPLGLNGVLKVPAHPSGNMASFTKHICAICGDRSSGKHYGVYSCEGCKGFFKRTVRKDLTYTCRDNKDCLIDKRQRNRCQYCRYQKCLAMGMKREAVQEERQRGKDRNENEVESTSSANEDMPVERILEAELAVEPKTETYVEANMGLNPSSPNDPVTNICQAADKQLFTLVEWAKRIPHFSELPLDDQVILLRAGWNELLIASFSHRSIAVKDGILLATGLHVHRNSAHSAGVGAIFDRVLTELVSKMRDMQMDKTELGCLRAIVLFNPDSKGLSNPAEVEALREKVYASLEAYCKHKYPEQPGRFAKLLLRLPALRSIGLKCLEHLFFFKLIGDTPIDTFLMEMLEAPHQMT

[9] = target: human retinoid X receptor beta (hRXRβ) (Homo sapiens, UniProt P28702); experiment: human retinoid X receptor beta (hRXRβ) transactivation assay; assay type: cell-based; conditions: for IC50: Anta = compound exhibited antagonism, read-out: RXRβ (Anta)
Sequence of human retinoid X receptor beta (hRXRβ) (P28702 whole entry, looked up): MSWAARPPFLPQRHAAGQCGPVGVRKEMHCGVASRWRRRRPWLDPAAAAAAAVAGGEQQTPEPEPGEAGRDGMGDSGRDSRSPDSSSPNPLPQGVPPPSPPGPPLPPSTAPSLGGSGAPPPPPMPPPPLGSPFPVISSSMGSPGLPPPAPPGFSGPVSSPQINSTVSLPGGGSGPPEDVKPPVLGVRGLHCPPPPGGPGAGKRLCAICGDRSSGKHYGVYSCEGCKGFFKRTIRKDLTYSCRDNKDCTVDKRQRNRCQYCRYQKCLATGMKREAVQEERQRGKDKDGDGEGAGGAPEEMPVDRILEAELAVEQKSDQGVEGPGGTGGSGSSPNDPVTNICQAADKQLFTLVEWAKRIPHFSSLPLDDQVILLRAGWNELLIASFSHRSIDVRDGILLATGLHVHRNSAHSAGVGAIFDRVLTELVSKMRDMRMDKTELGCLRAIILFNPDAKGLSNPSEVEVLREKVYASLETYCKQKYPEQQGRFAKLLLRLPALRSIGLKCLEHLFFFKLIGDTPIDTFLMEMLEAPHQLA
Method: Cells were maintained by following manufacturer's instruction. Briefly, RXRβ cells were maintained in DMEM supplemented with 10% dialyzed FBS, 0.1 mM non-essential amino acids, 25 mM HEPES, 100 μg/ml of hygromycin B, 100 μg/ml of zeocin, 100 units/ml penicillin and 100 μg/ml streptomycin.

[10] = target: human Farnesoid X receptor (hFXR) (Homo sapiens, UniProt Q96RI1); experiment: human Farnesoid X receptor (hFXR) transactivation assay; assay type: cell-based; conditions: Anta = compound exhibited antagonism; read-out: FXR (Anta)
Sequence of human Farnesoid X receptor (hFXR) (Q96RI1 whole entry, looked up): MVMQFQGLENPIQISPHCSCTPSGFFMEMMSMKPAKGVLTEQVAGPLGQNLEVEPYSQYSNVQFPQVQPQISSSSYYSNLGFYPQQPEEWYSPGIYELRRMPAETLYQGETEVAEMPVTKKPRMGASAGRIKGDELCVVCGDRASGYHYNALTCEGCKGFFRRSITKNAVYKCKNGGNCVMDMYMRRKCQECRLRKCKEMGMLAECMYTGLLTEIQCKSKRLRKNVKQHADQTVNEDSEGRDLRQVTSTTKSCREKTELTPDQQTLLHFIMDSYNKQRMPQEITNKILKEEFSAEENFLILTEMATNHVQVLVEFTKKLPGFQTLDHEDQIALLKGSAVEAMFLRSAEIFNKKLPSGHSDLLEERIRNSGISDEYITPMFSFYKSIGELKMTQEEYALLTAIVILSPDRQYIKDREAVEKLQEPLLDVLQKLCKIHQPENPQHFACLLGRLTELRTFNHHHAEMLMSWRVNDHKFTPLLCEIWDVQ
Method: Cells were maintained by following manufacturer's instruction. Briefly, FXR cells were maintained in DMEM supplemented with 10% dialyzed FBS, 0.1 mM non-essential amino acids, 25 mM HEPES, 100 μg/ml of hygromycin B, 100 μg/ml of zeocin, 100 units/ml penicillin and 100 μg/ml streptomycin.

[11] = target: human Liver X receptor alpha (hLXRα) (Homo sapiens, UniProt Q13133); experiment: human Liver X receptor alpha (hLXRα) transactivation assay; assay type: cell-based; conditions: Anta = compound exhibited antagonism; read-out: LXRα (Anta)
Sequence of human Liver X receptor alpha (hLXRα) (Q13133 whole entry, looked up): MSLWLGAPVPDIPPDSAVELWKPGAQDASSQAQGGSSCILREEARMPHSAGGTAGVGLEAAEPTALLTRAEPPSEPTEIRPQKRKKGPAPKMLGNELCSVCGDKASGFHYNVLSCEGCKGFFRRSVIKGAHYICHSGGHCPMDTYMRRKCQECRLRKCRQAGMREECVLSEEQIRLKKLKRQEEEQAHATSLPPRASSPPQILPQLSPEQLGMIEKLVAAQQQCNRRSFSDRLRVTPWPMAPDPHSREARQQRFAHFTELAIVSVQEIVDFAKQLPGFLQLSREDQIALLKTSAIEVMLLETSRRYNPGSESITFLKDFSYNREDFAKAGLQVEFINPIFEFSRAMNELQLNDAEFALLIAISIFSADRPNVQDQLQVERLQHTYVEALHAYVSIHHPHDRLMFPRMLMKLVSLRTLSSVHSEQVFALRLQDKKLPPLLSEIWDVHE

[12] = target: human Liver X receptor beta (hLXRβ) (Homo sapiens, UniProt P55055); experiment: human Liver X receptor beta (hLXRβ) transactivation assay; assay type: cell-based; conditions: Anta = compound exhibited antagonism; read-out: LXRβ (Anta)
Sequence of human Liver X receptor beta (hLXRβ) (P55055 whole entry, looked up): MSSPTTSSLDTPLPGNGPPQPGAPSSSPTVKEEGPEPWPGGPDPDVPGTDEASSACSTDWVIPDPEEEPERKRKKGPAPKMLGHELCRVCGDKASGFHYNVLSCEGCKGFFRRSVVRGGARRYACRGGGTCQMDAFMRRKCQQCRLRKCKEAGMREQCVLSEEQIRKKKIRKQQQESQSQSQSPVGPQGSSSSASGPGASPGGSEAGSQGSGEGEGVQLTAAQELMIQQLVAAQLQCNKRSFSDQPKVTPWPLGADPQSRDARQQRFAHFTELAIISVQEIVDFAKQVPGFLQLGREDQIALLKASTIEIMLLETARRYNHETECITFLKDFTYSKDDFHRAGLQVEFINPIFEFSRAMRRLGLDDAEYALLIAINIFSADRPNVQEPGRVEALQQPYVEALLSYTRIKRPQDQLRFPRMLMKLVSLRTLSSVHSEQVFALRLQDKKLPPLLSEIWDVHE

hPXR [13] = target: hPXR (Homo sapiens (Human), UniProt O75469); experiment: hPXR transactivation assays (agonistic and antagonistic), HepG2 cells with CYP3A4-luciferase reporter; conditions: read-out: IC50 (antag); antagonistic assay, combined with 5 μM rifampicin, 24 h; NA = not active
Sequence of hPXR (Homo sapiens (Human), UniProt O75469) (O75469 whole entry): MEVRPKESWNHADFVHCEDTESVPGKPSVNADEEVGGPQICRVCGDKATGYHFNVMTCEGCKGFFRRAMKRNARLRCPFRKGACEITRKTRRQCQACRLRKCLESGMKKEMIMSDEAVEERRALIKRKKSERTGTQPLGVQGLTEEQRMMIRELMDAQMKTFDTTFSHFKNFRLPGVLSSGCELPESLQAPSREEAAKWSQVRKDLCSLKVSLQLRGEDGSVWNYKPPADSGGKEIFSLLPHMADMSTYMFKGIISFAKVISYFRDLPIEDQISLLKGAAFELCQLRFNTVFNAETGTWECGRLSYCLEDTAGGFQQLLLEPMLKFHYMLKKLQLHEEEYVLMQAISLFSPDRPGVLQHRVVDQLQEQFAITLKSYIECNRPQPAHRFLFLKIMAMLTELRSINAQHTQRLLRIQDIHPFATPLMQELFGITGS
Method: The hPXR transactivation assays (PXR agonistic and antagonistic assays) were performed in the HepG2 cells stably expressing FLAG-hPXR and CYP3A4-luciferase reporter. […] The luminescence signal was detected using an Envision plate reader (PerkinElmer Life Sciences).

Structure (SMILES)	IC50 [5] [µM]	IC50 [7] [µM]	IC50 [8] [µM]	IC50 [9] [µM]	IC50 [10] [µM]	other results
COc1ccc(OC)c(-n2nnc(S(=O)(=O)c3ccc(C(C)(C)C)cc3)c2C)c1 [4-((4-(tert-butyl)phenyl)sulfonyl)-1-(2,5-dimethoxyphenyl)-5-methyl-1H-1,2,3-triazole]						metabolism of MDZ (1′-OH MDZ in the media) [1]: essentially blocked; metabolism of PTX to 3-OH PTX (by CYP3A4) [2]: effectively blocked; metabolism of PTX to 6α-OH PTX (by CYP2C8) [2]: effectively blocked; apparent IC50 for PTX, TXT, VBL, or VCR [3]: significantly higher in the absence of the test compound; hPXR-mediated increase in CYP3A expression (liver Cyp3a11 mRNA, CYP3A protein) (hPXR [4]): inhibits the hPXR-mediated increase in CYP3A expression; RIF-induced expression of the reporter under the control of the CYP3A4 promoter (CYP3A4 promoter reporter): significantly reduced; RIF-induced metabolism of the anesthetic, by LORR duration (hPXR-tg mice): significantly inhibited
COc1cc(Cl)c(Cl)cc1-n1nnc(S(=O)(=O)c2ccc(C(C)(C)C)cc2)c1C [LC-28, 4-((4-(tert-butyl)phenyl)sulfonyl)-1-(4,5-dichloro-2-methoxyphenyl)-5-methyl-1H-1,2,3-triazole]	14.4					
COc1ccc(OC)c(-n2nnc(S(=O)(=O)c3ccc(C(C)(C)C)cc3)c2Br)c1 [LC-61, 5-bromo-4-((4-(tert-butyl)phenyl)sulfonyl)-1-(2,5-dimethoxyphenyl)-1H-1,2,3-triazole]	12.8					
COc1ccc(Cl)cc1-n1nnc(S(=O)(=O)c2ccc(C(C)(C)C)cc2)c1Br [LC-62, 5-bromo-4-((4-(tert-butyl)phenyl)sulfonyl)-1-(5-chloro-2-methoxyphenyl)-1H-1,2,3-triazole]	10.5					
COc1ccc(OC)c(-n2nnc(S(=O)(=O)c3ccc(C(C)(C)C)cc3)c2CCl)c1 [LC-64, 4-((4-(tert-butyl)phenyl)sulfonyl)-5-(chloromethyl)-1-(2,5-dimethoxyphenyl)-1H-1,2,3-triazole]	1.5	5.6	5.8	4.1	6.3	IC50 (HepG2 cells; NA = not active): 7.9 µM; IC50 [6]: 7.3 µM; IC50 [11]: 6.5 µM; IC50 [12]: 4.1 µM
COC(=O)Cc1c(S(=O)(=O)c2ccc(C(C)(C)C)cc2)nnn1-c1cc(C)ccc1OC [LC-66, methyl 2-(4-((4-(tert-butyl)phenyl)sulfonyl)-1-(2-methoxy-5-methylphenyl)-1H-1,2,3-triazol-5-yl)acetate]						EC50 ([9]; Ag = compound exhibited agonism, read-out: RXRβ (Ag)): 19.3 µM
COc1ccc(OC)c(-c2ncc(S(=O)(=O)c3ccc(C(C)(C)C)cc3)n2C)c1 [LC-70, 5-((4-(tert-butyl)phenyl)sulfonyl)-2-(2,5-dimethoxyphenyl)-1-methyl-1H-imidazole]	28.3	20.4	16.1		14.3	IC50 (HepG2 cells; NA = not active): 15.3 µM
COc1ccc(OC)c(-c2nc(C)c(S(=O)(=O)c3ccc(C(C)(C)C)cc3)[nH]2)c1 [LC-73, 5-((4-(tert-butyl)phenyl)sulfonyl)-2-(2,5-dimethoxyphenyl)-4-methyl-1H-imidazole]		4.4				
Cc1c(S(=O)(=O)c2ccc(C(C)(C)C)cc2)nnn1-c1cc(O)ccc1O [LC-85, 2-(4-((4-(tert-butyl)phenyl)sulfonyl)-5-methyl-1H-1,2,3-triazol-1-yl)benzene-1,4-diol]	12.8			31		IC50 (hPXR [13]): 3.9 µM
COc1ccc(O)c(-n2nnc(S(=O)(=O)c3ccc(C(C)(C)C)cc3)c2C)c1 [LC-86, 2-(4-((4-(tert-butyl)phenyl)sulfonyl)-5-methyl-1H-1,2,3-triazol-1-yl)-4-methoxyphenol]	11.8	21.4	20.6	17.9	21.9	IC50 (HepG2 cells): 26.1 µM; IC50 [6]: 24.2 µM; IC50 [11]: 29.8 µM; IC50 [12]: 18.9 µM; IC50 (hPXR [13]): 0.18 µM
